# Data: ChEMBL document CHEMBL2040784, “Design and synthesis of peptides from bacterial ParE toxin as inhibitors of topoisomerases” (Eur J Med Chem, 2012)
# Activity calls are given as the source filed them. The calls are words filed in the database; no cut-off is given here. Where a SMILES comes first, the peptide text is derived from it.
# What was measured:
# Escherichia coli [1] = experiment: Inhibition of Escherichia coli DNA gyrase supercoiling activity using relaxed pBR322 DNA after 1 hr by gel electrophoresis assay
# Escherichia coli [2] = experiment: Inhibition of Escherichia coli DNA gyrase supercoiling activity using relaxed pBR322 DNA at 20 umol/L after 1 hr by gel electrophoresis assay
# Escherichia coli [3] = experiment: Inhibition of Escherichia coli topoisomerase-4-mediated DNA cleavage assessed as relaxation of supercoiled pBR322 after 1 hr by gel electrophoresis assay
# [4] = target: DNA topoisomerase 2-alpha (Homo sapiens) (UniProt P11388); experiment: Inhibition of human topoisomerase 2-mediated DNA cleavage assessed as relaxation of supercoiled pBR322 after 1 hr by gel electrophoresis assay
# Chain of DNA topoisomerase 2-alpha (Homo sapiens) (P11388 whole entry): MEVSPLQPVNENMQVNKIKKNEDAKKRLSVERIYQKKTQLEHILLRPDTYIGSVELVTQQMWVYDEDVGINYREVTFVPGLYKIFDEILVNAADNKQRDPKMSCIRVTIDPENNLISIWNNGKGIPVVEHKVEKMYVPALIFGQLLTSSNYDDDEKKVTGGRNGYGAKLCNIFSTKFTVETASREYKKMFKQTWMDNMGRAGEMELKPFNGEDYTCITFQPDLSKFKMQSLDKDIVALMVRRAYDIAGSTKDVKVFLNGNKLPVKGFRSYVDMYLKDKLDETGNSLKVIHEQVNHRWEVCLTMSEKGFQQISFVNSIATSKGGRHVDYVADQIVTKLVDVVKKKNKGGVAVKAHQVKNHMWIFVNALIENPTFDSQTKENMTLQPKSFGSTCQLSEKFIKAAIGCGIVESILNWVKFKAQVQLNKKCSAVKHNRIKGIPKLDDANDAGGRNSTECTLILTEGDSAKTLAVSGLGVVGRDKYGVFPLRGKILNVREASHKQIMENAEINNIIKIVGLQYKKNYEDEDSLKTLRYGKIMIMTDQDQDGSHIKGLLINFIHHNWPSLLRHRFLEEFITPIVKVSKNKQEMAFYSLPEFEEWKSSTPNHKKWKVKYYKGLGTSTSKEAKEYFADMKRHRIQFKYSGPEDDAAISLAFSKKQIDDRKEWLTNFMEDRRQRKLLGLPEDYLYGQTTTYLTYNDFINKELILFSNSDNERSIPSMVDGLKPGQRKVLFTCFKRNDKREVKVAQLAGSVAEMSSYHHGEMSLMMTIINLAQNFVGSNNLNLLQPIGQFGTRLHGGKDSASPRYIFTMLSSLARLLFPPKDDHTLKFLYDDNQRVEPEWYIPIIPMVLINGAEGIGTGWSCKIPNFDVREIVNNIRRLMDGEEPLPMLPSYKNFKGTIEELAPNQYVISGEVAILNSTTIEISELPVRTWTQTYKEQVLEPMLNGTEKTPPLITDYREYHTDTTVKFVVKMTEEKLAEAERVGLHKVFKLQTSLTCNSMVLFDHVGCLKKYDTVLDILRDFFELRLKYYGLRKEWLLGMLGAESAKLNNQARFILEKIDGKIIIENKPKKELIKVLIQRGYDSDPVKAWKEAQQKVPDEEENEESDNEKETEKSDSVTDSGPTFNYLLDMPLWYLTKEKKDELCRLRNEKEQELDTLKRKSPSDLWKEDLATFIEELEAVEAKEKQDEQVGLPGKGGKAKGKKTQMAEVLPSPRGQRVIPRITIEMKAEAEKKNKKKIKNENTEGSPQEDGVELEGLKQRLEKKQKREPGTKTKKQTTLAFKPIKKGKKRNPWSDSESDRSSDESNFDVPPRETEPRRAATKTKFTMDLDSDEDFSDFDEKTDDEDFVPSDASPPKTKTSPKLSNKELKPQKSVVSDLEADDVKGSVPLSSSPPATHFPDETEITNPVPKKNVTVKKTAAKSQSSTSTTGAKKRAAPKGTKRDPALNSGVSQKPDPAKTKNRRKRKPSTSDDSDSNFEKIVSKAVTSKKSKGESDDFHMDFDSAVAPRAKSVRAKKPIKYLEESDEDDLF
# Escherichia coli [5] = experiment: Inhibition of Escherichia coli topoisomerase-4-mediated DNA cleavage assessed as relaxation of supercoiled pBR322 at <75 umol/L after 1 hr by gel electrophoresis assay
Compound,IC100 (Escherichia coli [1]) [µmol/L],inhibition (Escherichia coli [2]) [%],IC100 (Escherichia coli [3]) [µmol/L],inhibition [4],IC100 [4] [µmol/L],inhibition (Escherichia coli [5])
H-PALVVAIFHERMDLMARLSER-OH,> 20,93,10,inactive,,
CC[C@H](C)[C@H](NC(=O)[C@H](CCSC)NC(=O)[C@H](CCCNC(=N)N)NC(=O)[C@@H](N)CC(C)C)C(=O)N[C@@H](Cc1cnc[nH]1)C(=O)N[C@@H](CS)C(=O)N[C@@H](CCC(=O)O)C(=O)N[C@@H](Cc1cnc[nH]1)C(=O)N[C@@H](Cc1cnc[nH]1)C(=O)N[C@@H](Cc1ccc(O)cc1)C(=O)N[C@H](C(=O)N[C@@H](Cc1ccccc1)C(=O)N[C@@H](CS)C(=O)N[C@@H](CC(C)C)C(=O)N1CCC[C@H]1C(=O)N[C@@H](Cc1cnc[nH]1)C(=O)NCC(=O)N[C@@H](CO)C(=O)N[C@@H](C)C(=O)O)C(C)C (H-LRMIHCEHHYVFCLPHGSA-OH),50,,25,,50,
H-HYVFCLPHGSAPALVVAIFHERMDLMARLSERLNIES-OH,,,,,,inactive
CC[C@H](C)[C@H](NC(=O)[C@H](C)NC(=O)[C@@H](NC(=O)[C@@H](NC(=O)[C@H](CC(C)C)NC(=O)[C@H](C)NC(=O)[C@@H]1CCCN1C(=O)[C@H](C)NC(=O)[C@H](CO)NC(=O)CNC(=O)[C@H](Cc1cnc[nH]1)NC(=O)[C@@H]1CCCN1C(=O)[C@H](CC(C)C)NC(=O)[C@H](CS)NC(=O)[C@H](Cc1ccccc1)NC(=O)[C@@H](NC(=O)[C@H](Cc1ccc(O)cc1)NC(=O)[C@H](Cc1cnc[nH]1)NC(=O)[C@H](Cc1cnc[nH]1)NC(=O)[C@H](CCC(=O)O)NC(=O)[C@H](CS)NC(=O)[C@H](Cc1cnc[nH]1)NC(=O)[C@@H](NC(=O)[C@H](CCSC)NC(=O)[C@H](CCCNC(=N)N)NC(=O)[C@@H](N)CC(C)C)[C@@H](C)CC)C(C)C)C(C)C)C(C)C)C(=O)N[C@@H](Cc1ccccc1)C(=O)O (H-LRMIHCEHHYVFCLPHGSAPALVVAIF-OH),,,,inactive,,
